The results in this text go back to ChEMBL document CHEMBL5705888, “Substrate specificity and inhibitors of LRRK2, a protein kinase mutated in Parkinson's disease” (Biochem J, 2009).

Assay [1] has as its target Serine/threonine-protein kinase PAK 6 (Homo sapiens) (UniProt Q9NQU5). In words: Inhibition of PAK6 (unknown origin) at 10 uM incubated for 30 mins in presence of [gamma-33P]ATP by multidrop micro reagent based assay relative to control; values are per cent of control.
In assay [2] the target is Receptor tyrosine-protein kinase erbB-4 (Homo sapiens) (UniProt Q15303). In words: Inhibition of HER4 (unknown origin) at 10 uM incubated for 30 mins in presence of [gamma-33P]ATP by multidrop micro reagent based assay relative to control; values are per cent of control.
Assay [3] concerns the target T1, Dual specificity tyrosine-phosphorylation-regulated kinase 2 (Homo sapiens) (UniProt Q92630).
T1 sequence (whole entry): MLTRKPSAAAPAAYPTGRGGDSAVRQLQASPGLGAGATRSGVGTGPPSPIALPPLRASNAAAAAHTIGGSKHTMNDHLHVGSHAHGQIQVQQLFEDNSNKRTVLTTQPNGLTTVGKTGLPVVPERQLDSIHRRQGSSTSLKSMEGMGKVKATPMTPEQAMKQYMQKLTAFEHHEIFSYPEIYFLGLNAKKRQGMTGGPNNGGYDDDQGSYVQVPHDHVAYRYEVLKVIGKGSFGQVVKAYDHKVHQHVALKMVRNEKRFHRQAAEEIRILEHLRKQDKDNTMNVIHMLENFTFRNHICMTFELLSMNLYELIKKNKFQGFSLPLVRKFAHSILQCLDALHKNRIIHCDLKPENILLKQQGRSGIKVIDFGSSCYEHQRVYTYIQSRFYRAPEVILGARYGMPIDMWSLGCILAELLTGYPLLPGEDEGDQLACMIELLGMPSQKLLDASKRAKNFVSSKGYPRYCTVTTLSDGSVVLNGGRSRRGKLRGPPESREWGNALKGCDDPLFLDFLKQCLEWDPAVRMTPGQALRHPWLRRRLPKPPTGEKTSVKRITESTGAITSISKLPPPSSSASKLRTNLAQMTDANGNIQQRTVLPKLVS
In words: Inhibition of DYRK2 (unknown origin) at 10 uM incubated for 30 mins in presence of [gamma-33P]ATP by multidrop micro reagent based assay relative to control; values are per cent of control.

Assay [4] has as its target Mitogen-activated protein kinase 14 (Homo sapiens) (UniProt Q16539). In words: Inhibition of p38alpha MAPK (unknown origin) at 10 uM incubated for 30 mins in presence of [gamma-33P]ATP by multidrop micro reagent based assay relative to control; values are per cent of control.
Assay [5] addresses Mitogen-activated protein kinase 9 (Homo sapiens) (UniProt P45984). In words: Inhibition of JNK2 (unknown origin) at 1 uM incubated for 30 mins in presence of [gamma-33P]ATP by multidrop micro reagent based assay relative to control; values are per cent of control.
The target in assay [6] is T2, Mitogen-activated protein kinase 15 (Homo sapiens) (UniProt Q8TD08).
T2 sequence (whole entry): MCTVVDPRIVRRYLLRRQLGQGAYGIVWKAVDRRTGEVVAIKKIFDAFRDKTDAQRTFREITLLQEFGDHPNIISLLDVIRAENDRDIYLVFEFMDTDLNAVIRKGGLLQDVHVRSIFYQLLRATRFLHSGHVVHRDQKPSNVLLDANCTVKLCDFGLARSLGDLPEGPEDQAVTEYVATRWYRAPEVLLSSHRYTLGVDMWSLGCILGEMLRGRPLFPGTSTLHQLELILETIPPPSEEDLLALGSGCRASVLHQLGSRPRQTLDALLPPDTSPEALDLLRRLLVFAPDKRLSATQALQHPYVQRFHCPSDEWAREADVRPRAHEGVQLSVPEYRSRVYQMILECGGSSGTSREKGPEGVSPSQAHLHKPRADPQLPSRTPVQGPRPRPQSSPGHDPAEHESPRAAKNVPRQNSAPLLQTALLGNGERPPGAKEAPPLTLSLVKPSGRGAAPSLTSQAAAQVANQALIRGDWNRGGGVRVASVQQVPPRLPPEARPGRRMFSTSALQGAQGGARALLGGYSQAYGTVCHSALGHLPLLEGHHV
In words: Inhibition of ERK8 (unknown origin) at 1 uM incubated for 30 mins in presence of [gamma-33P]ATP by multidrop micro reagent based assay relative to control; values are per cent of control.

The target of assay [7] is T3, Serine/threonine-protein kinase Sgk1 (Homo sapiens) (UniProt O00141).
T3 sequence (whole entry): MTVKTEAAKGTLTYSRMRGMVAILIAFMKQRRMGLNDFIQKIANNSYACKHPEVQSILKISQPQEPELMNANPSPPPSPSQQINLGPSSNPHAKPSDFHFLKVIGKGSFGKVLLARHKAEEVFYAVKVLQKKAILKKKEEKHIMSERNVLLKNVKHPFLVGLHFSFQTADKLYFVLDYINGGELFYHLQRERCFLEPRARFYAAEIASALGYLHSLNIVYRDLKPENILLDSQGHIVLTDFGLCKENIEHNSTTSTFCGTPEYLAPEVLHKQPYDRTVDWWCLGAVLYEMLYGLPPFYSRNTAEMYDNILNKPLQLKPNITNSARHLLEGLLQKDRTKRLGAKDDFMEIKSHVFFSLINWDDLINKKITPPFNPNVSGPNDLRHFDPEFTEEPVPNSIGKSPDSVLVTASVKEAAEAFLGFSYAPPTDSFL
In words: Inhibition of SGK1 (unknown origin) at 1 uM incubated for 30 mins in presence of [gamma-33P]ATP by multidrop micro reagent based assay relative to control; values are per cent of control.

For the next assay, the species on record is Homo sapiens. In words: Inhibition of CDK2/cyclin A (unknown origin) at 1 uM incubated for 30 mins in presence of [gamma-33P]ATP by multidrop micro reagent based assay relative to control; values are per cent of control.
Assay [8] concerns the target MAP kinase-interacting serine/threonine-protein kinase 1 (Homo sapiens) (UniProt Q9BUB5). In words: Inhibition of MNK1 (unknown origin) at 1 uM incubated for 30 mins in presence of [gamma-33P]ATP by multidrop micro reagent based assay relative to control; values are per cent of control.
Assay [9] concerns the target Receptor tyrosine-protein kinase erbB-4 (Homo sapiens) (UniProt Q15303). In words: Inhibition of HER4 (unknown origin) at 1 uM incubated for 30 mins in presence of [gamma-33P]ATP by multidrop micro reagent based assay relative to control; values are per cent of control.
Assay [10] concerns the target SRSF protein kinase 1 (Homo sapiens) (UniProt Q96SB4). In words: Inhibition of SRPK1 (unknown origin) at 1 uM incubated for 30 mins in presence of [gamma-33P]ATP by multidrop micro reagent based assay relative to control; values are per cent of control.

Chain of Receptor tyrosine-protein kinase erbB-4 (Homo sapiens) (Q15303 whole entry): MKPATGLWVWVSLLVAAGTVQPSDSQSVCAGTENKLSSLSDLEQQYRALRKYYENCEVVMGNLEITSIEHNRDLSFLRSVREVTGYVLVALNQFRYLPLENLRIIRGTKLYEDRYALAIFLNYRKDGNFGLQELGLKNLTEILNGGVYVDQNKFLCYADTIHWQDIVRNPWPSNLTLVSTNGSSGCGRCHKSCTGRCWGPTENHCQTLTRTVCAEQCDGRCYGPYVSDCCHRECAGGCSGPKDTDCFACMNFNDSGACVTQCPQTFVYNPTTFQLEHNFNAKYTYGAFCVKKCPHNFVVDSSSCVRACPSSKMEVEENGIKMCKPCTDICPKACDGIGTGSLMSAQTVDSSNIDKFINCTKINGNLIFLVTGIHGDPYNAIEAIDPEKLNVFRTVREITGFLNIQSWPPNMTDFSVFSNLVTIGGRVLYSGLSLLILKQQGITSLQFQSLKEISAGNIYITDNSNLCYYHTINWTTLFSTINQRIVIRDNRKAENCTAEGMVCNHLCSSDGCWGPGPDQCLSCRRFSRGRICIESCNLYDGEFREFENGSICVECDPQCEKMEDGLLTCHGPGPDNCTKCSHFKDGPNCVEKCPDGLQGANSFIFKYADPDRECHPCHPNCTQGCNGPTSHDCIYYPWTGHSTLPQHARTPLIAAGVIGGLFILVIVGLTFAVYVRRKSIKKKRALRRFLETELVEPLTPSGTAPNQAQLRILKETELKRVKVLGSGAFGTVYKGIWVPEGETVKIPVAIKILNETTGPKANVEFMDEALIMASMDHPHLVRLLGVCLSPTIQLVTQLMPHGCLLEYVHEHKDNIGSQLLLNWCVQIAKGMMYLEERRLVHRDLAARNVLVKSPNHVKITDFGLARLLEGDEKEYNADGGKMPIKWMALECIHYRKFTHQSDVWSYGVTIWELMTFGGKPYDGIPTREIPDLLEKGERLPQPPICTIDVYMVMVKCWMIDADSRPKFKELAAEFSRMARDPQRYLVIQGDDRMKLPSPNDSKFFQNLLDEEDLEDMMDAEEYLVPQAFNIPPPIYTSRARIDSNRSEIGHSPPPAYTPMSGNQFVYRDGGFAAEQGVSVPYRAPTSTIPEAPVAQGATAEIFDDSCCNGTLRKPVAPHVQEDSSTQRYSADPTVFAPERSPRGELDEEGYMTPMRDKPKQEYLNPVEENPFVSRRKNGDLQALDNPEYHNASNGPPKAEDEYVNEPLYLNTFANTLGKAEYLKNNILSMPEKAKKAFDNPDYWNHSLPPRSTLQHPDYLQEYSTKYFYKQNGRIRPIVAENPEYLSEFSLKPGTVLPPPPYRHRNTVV
Chain of Mitogen-activated protein kinase 14 (Homo sapiens) (Q16539 whole entry): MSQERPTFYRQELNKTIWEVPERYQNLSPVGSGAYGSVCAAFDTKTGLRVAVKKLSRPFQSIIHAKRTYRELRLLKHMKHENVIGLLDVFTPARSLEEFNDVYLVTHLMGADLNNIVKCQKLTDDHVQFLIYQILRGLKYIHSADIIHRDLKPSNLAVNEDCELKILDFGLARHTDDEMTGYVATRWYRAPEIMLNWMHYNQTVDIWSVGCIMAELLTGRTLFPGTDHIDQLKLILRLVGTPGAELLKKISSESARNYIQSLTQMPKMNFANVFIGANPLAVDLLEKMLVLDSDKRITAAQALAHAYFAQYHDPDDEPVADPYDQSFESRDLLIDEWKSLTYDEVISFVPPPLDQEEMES
Chain of SRSF protein kinase 1 (Homo sapiens) (Q96SB4 whole entry): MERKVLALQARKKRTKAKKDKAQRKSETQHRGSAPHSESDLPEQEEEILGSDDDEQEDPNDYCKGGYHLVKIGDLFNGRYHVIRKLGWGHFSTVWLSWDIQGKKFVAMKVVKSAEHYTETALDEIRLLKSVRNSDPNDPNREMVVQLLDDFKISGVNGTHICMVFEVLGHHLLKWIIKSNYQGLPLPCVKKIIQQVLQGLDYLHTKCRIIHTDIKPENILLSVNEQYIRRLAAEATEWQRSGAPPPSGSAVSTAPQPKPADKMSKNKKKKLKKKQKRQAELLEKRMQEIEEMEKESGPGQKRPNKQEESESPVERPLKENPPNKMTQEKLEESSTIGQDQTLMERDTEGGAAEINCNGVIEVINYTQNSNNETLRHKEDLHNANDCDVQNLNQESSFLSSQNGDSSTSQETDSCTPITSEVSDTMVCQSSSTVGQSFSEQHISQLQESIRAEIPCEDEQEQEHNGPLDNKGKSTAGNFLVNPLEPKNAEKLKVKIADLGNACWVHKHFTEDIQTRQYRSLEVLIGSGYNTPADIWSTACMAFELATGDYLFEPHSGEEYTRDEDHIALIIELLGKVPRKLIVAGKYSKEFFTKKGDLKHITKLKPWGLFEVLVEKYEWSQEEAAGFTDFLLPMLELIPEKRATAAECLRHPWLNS
Chain of Serine/threonine-protein kinase PAK 6 (Homo sapiens) (Q9NQU5 whole entry, looked up): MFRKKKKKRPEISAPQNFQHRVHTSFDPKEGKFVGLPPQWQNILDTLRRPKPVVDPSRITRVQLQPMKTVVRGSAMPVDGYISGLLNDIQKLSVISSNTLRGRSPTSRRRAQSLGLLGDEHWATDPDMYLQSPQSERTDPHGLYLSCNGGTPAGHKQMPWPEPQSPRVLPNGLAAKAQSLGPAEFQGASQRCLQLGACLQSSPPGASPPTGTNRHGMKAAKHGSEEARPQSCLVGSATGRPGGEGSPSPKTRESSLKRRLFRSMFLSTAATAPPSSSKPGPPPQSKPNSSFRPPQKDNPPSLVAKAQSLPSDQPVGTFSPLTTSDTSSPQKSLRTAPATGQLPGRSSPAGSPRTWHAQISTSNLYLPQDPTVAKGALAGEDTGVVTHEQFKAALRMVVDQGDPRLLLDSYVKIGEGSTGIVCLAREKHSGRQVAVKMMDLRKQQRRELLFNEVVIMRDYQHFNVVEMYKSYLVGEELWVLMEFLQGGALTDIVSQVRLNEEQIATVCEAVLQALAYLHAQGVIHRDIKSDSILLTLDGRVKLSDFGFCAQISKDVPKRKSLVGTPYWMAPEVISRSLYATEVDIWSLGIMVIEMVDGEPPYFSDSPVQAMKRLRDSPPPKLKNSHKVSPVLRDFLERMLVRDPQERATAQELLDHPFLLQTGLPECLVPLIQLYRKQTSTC
Chain of Mitogen-activated protein kinase 9 (Homo sapiens) (P45984 whole entry, looked up): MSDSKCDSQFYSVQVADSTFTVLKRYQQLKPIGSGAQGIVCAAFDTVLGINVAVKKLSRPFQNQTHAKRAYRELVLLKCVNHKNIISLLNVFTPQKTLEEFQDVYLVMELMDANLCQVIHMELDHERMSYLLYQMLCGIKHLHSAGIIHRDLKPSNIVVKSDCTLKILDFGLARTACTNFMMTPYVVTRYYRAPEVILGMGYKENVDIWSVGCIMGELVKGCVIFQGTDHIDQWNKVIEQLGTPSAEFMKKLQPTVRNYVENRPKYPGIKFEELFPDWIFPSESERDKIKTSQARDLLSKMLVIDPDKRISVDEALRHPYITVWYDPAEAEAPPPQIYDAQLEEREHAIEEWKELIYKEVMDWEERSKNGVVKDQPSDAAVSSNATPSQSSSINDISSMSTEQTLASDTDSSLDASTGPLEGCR
Chain of MAP kinase-interacting serine/threonine-protein kinase 1 (Homo sapiens) (Q9BUB5 whole entry, looked up): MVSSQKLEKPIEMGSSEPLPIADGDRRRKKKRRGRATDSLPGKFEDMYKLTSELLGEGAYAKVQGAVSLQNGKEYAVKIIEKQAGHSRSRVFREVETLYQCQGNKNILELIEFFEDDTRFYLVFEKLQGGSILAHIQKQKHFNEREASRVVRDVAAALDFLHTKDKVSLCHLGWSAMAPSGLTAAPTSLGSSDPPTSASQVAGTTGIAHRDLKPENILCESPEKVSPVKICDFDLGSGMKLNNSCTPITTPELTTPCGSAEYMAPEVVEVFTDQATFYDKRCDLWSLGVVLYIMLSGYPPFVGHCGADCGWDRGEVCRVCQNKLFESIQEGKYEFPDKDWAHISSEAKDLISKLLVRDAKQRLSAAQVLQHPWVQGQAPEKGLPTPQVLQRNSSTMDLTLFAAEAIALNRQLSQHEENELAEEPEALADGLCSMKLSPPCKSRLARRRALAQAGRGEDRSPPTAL

Regarding `C[C@@H](N)[C@H]1CC[C@H](C(=O)Nc2ccncc2)CC1`, the residual activity in [1] was found to be 96%; in assay [2] it was 69%; in [3], 92%; in assay [4], 103%.
Turning to `CCn1c(-c2nonc2N)nc2cnc(Oc3cccc(NC(=O)c4ccc(OCCN5CCOCC5)cc4)c3)cc21` [GSK-269962A], the residual activity in assay [5] is 101%; in [6] it was 27%; in assay [7], 24%; in the assay filed under Homo sapiens, 50%.
With `CC1=C(C(=O)Nc2cc3cn[nH]c3cc2F)C(c2ccc(C(F)(F)F)cc2)CC(=O)N1` (configuration not stated), the residual activity in assay [5] was found to be 101%; in assay [6], 95%; in assay [7] it was 131%; in assay [8] it was 91%; in [9], 50%; in assay [10], 71%. Besides, the residual activity in the assay filed under Homo sapiens was 49%.
Consider `O=S(=O)(c1cccc2cnccc12)N1CCCNCC1` [FASUDIL], for which the residual activity is 110% in [1], 129% in assay [2], 80% in [3] and 108% in assay [4].
With `Cc1cncc2cccc(S(=O)(=O)N3CCCNC[C@@H]3C)c12`, the figures for the residual activity in [8], in [9] and in assay [10] were 50%, 107% and 125%, respectively.
